Molecules are shown by their SMILES.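 How tested: cells in 96-well plates exposed to compound for 48 hours at five concentrations. TGI denotes the concentration required for complete inhibition of growth.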

One experiment deals with 786-0 renal. Nature of the experiment: NCI tumour cell line growth inhibition, 48 h.
As for `O=S(=O)(O)c1ccc(O)c2ncc(Cl)cc12`, the TGI was over 100 µM.
In the case of `COc1cc(/C=C/C(=O)c2ccc(NS(=O)(=O)c3cc([N+](=O)[O-])ccc3C)cc2)cc(OC)c1OC`, the TGI was 7.14 µM.
Same read-out and setting: for `CCOC(=O)C(=[N+]=[N-])C(=O)C1(C(=O)OCC)CCN(C(=O)c2ccccc2)C1=O` (configuration not stated) the value was over 100 µM; for `NC(=O)N/N=C1\CCCCc2ccccc21`, over 10 µM.
Take `CCOC(=O)c1ccc(N=C2C(=S)N(c3ccc(C(=O)OCC)cc3)C(=N)N2/N=C/c2ccccc2)cc1`: the TGI turned out to be 30 µM.

The next experiment relates to SNB-75 CNS. Nature of the experiment: NCI tumour cell line growth inhibition, 48 h.
For `O=C(COc1ccc2c(=O)cc(-c3ccccc3)oc2c1)N1CCN(c2ccccc2)CC1`, the TGI was over 100 µM.
Same read-out and setting: for `Cn1cnc(CCc2ccccc2)n1` the value was over 100 µM.
Still for that read-out and setting: to `CCOC(=O)c1c(N)sc2c1C(C(=O)OCC)CC2` (configuration not stated) belongs over 100 µM.
Regarding `O=C1C(Cl)=C(OCCCCl)C(=O)c2c(O)ccc(O)c21`, the TGI is 3.91 µM.
With `CC1=C(C(=O)O)N2C(=O)[C@@H](NC(=O)C(c3ccc(O)cc3)N3CSC(=S)N(C(C)C)C3)C2SC1` (some centres not stated), the TGI was over 100 µM.
Compound `COc1cc(OC)c2c(c1)C(=O)C(CC(C)O)=CC2=O` (configuration not stated) displayed a TGI of 41 µM.
The compound `Cc1csc(=S)n1OC(=O)NC1CCCCC1` showed a TGI of over 100 µM.
Still for that read-out and setting: to `N#CCc1nc2ccccc2c(=O)[nH]1` belongs over 100 µM; to `O=C(CSc1nnc(-c2ccc(N=Cc3ccc(Cl)cc3)cc2)o1)Nc1ccc(Cl)cc1Cl`, 72.7 µM; to `COc1ccc(C2=Nc3ccccc3NC(=O)C2)cc1`, 57.3 µM.
`CCN(CC)CCCNc1nc(=O)[nH]c(C)c1C(=O)Nc1cccc2cc3ccccc3cc12` registered a TGI of over 100 µM.
Compound `O=S(=O)(O)c1ccc(O)c2ncc(Cl)cc12` had a TGI of over 100 µM.
Same read-out and setting: to `COc1cc(/C=C/C(=O)c2ccc(NS(=O)(=O)c3cc([N+](=O)[O-])ccc3C)cc2)cc(OC)c1OC` belongs 14.2 µM.
The same measure, in the same setting: for `CCOC(=O)C(=[N+]=[N-])C(=O)C1(C(=O)OCC)CCN(C(=O)c2ccccc2)C1=O` (configuration not stated) the value was over 100 µM.

The next experiment concerns NCI-H460 lung. Nature of the experiment: NCI tumour cell line growth inhibition, 48 h.
Take `O=C(COc1ccc2c(=O)cc(-c3ccccc3)oc2c1)N1CCN(c2ccccc2)CC1`: the TGI was over 100 µM.
Compound `O=C(c1cccc2ccccc12)C1(Br)S(=O)(=O)OCCOS1(=O)=O` returned a TGI of over 100 µM.
The compound `Cn1cnc(CCc2ccccc2)n1` gave a TGI of over 100 µM.
The compound `CCOC(=O)c1c(N)sc2c1C(C(=O)OCC)CC2` (configuration not stated) gave a TGI of over 100 µM.
`O=C1C(Cl)=C(OCCCCl)C(=O)c2c(O)ccc(O)c21` gave a TGI of 27.2 µM.
The compound `CC1=C(C(=O)O)N2C(=O)[C@@H](NC(=O)C(c3ccc(O)cc3)N3CSC(=S)N(C(C)C)C3)C2SC1` (some centres not stated) returned a TGI of over 100 µM.
As for `COc1cc(OC)c2c(c1)C(=O)C(CC(C)O)=CC2=O` (configuration not stated), the TGI came to 40.4 µM.
For the compound `Cc1csc(=S)n1OC(=O)NC1CCCCC1`, the TGI is over 100 µM.
Compound `N#CCc1nc2ccccc2c(=O)[nH]1` had a TGI of over 100 µM.
As for `O=C(CSc1nnc(-c2ccc(N=Cc3ccc(Cl)cc3)cc2)o1)Nc1ccc(Cl)cc1Cl`, the TGI was over 100 µM.
Regarding `COc1ccc(C2=Nc3ccccc3NC(=O)C2)cc1`, the TGI is over 100 µM.
As for `O=S(=O)(O)c1ccc(O)c2ncc(Cl)cc12`, the TGI was over 100 µM.
The same measure, in the same setting: for `CCOC(=O)C(=[N+]=[N-])C(=O)C1(C(=O)OCC)CCN(C(=O)c2ccccc2)C1=O` (configuration not stated) the value was over 100 µM; for `NC(=O)N/N=C1\CCCCc2ccccc21`, over 10 µM.
Regarding `CCOC(=O)c1ccc(N=C2C(=S)N(c3ccc(C(=O)OCC)cc3)C(=N)N2/N=C/c2ccccc2)cc1`, the TGI is over 100 µM.

The subject of another experiment is A498 renal. Nature of the experiment: NCI tumour cell line growth inhibition, 48 h.
Compound `Cn1cnc(CCc2ccccc2)n1` gave a TGI of over 100 µM.
Compound `CCOC(=O)c1c(N)sc2c1C(C(=O)OCC)CC2` (configuration not stated) showed a TGI of 82.1 µM.
`O=C1C(Cl)=C(OCCCCl)C(=O)c2c(O)ccc(O)c21`: the TGI stood at 28.5 µM.
The compound `CC1=C(C(=O)O)N2C(=O)[C@@H](NC(=O)C(c3ccc(O)cc3)N3CSC(=S)N(C(C)C)C3)C2SC1` (some centres not stated) yielded a TGI of over 100 µM.
Compound `COc1cc(OC)c2c(c1)C(=O)C(CC(C)O)=CC2=O` (configuration not stated) yielded a TGI of 31.7 µM.
In the case of `Cc1csc(=S)n1OC(=O)NC1CCCCC1`, the TGI is over 100 µM.
Still for that read-out and setting: to `O=C(CSc1nnc(-c2ccc(N=Cc3ccc(Cl)cc3)cc2)o1)Nc1ccc(Cl)cc1Cl` belongs over 100 µM; to `COc1ccc(C2=Nc3ccccc3NC(=O)C2)cc1`, over 100 µM.
On the same count and under the same terms, for `O=S(=O)(O)c1ccc(O)c2ncc(Cl)cc12` the value was over 100 µM.
In the case of `CCOC(=O)C(=[N+]=[N-])C(=O)C1(C(=O)OCC)CCN(C(=O)c2ccccc2)C1=O` (configuration not stated), the TGI is over 100 µM.

For another experiment, the system named is MALME-3M melanoma. Nature of the experiment: NCI tumour cell line growth inhibition, 48 h.
For the compound `O=C(COc1ccc2c(=O)cc(-c3ccccc3)oc2c1)N1CCN(c2ccccc2)CC1`, the TGI is over 100 µM.
As to `O=C(c1cccc2ccccc12)C1(Br)S(=O)(=O)OCCOS1(=O)=O`, the TGI was over 100 µM.
The compound `Cn1cnc(CCc2ccccc2)n1` registered a TGI of over 100 µM.
Still for that read-out and setting: to `CCOC(=O)c1c(N)sc2c1C(C(=O)OCC)CC2` (configuration not stated) belongs over 100 µM; to `O=C1C(Cl)=C(OCCCCl)C(=O)c2c(O)ccc(O)c21`, 3.6 µM; to `CC1=C(C(=O)O)N2C(=O)[C@@H](NC(=O)C(c3ccc(O)cc3)N3CSC(=S)N(C(C)C)C3)C2SC1` (some centres not stated), over 100 µM.
Still for that read-out and setting: to `COc1cc(OC)c2c(c1)C(=O)C(CC(C)O)=CC2=O` (configuration not stated) belongs 37.3 µM.
`Cc1csc(=S)n1OC(=O)NC1CCCCC1` registered a TGI of over 100 µM.
With `O=C(CSc1nnc(-c2ccc(N=Cc3ccc(Cl)cc3)cc2)o1)Nc1ccc(Cl)cc1Cl`, the TGI came to 47.5 µM.
`COc1ccc(C2=Nc3ccccc3NC(=O)C2)cc1` yielded a TGI of over 100 µM.
On to `CCN(CC)CCCNc1nc(=O)[nH]c(C)c1C(=O)Nc1cccc2cc3ccccc3cc12`, for which the TGI was over 100 µM.
The compound `CCOC(=O)C(=[N+]=[N-])C(=O)C1(C(=O)OCC)CCN(C(=O)c2ccccc2)C1=O` (configuration not stated) came in with a TGI of over 100 µM.
Compound `NC(=O)N/N=C1\CCCCc2ccccc21` showed a TGI of over 10 µM.
Compound `CCOC(=O)c1ccc(N=C2C(=S)N(c3ccc(C(=O)OCC)cc3)C(=N)N2/N=C/c2ccccc2)cc1` came in with a TGI of 49.1 µM.

A further experiment deals with HCT-116 colon. Nature of the experiment: NCI tumour cell line growth inhibition, 48 h.
The compound `O=C(COc1ccc2c(=O)cc(-c3ccccc3)oc2c1)N1CCN(c2ccccc2)CC1` came in with a TGI of over 100 µM.
The compound `O=C(c1cccc2ccccc12)C1(Br)S(=O)(=O)OCCOS1(=O)=O` came in with a TGI of over 100 µM.
For the compound `Cn1cnc(CCc2ccccc2)n1`, the TGI is over 100 µM.
`CCOC(=O)c1c(N)sc2c1C(C(=O)OCC)CC2` (configuration not stated) yielded a TGI of over 100 µM.
The compound `O=C1C(Cl)=C(OCCCCl)C(=O)c2c(O)ccc(O)c21` gave a TGI of 3.91 µM.
The same measure, in the same setting: to `CC1=C(C(=O)O)N2C(=O)[C@@H](NC(=O)C(c3ccc(O)cc3)N3CSC(=S)N(C(C)C)C3)C2SC1` (some centres not stated) belongs over 100 µM; to `COc1cc(OC)c2c(c1)C(=O)C(CC(C)O)=CC2=O` (configuration not stated), 25 µM.
Consider `Cc1csc(=S)n1OC(=O)NC1CCCCC1`, for which the TGI is 96.8 µM.
For `N#CCc1nc2ccccc2c(=O)[nH]1`, the TGI is over 100 µM.

The values are drawn from PubChem BioAssay (NCI).
